Assay results: patent US20210188843A1, “QUINOLINE COMPOUNDS AND THEIR PREPARATION AND USE AS ANTIMALARIAL AGENTS” (The United States of America,as represented by the …, priority 2018, published 2021)

Tests used:
Solubility pH 7.4 = assay type: physicochemical; conditions: aqueous buffer, Table 1
[1] = Microsomal stability (rat); assay type: in vitro ADME; conditions: rat microsomes, Table 1, read-out: Microsomal Stability (rat) T1/2
[2] = tested on: Asexual parasites of P. falciparum strain 3D7; experiment: In vitro drug activity on asexual parasites (SYBR Green assay); assay type: cell-based; conditions: Plasmodium falciparum; Table 1; P. falciparum 3D7 asexual stage, 72 h; read-out: Asexual EC50
Summary of the method: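 3D7 asexual cultures at 0.5% parasitemia and 2% hematocrit were exposed to drug (DMSO <0.5%) for 72 h under standard culture conditions, in duplicate with no-drug and RBC-only controls. After freeze-thaw lysis, SYBR Green I lysis buffer was added for 30 min at room temperature; fluorescence was read at 490 nm excitation/520 nm emission.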

PAMPA permeability = assay type: in vitro ADME; conditions: Table 1

- solubility (Solubility pH 7.4): < 1 µg/mL
- half-life [1]: > 30 min
- EC50 [2]: 8.98 µM
- Papp (PAMPA permeability): 916 ×10⁻⁶ cm/s
Compound: Cc1ccc(C#N)cc1-n1c(=N)n(C)c2cnc3ccc(C#Cc4ccc(Cl)cc4)cc3c21 [Compound 155, 3-(8-((4-chlorophenyl)ethynyl)-2-imino-3-methyl-2,3-dihydro-1H-imidazo[4,5-c]quinolin-1-yl)-4-methylbenzonitrile]
